Reference: patent US9493436B2, “Tyrosine phosphatase inhibitors and uses thereof to modulate the activity of enzymes involved in the pathology of Mycobacterium tuberculosis” (priority 2011, dated 2016)

What was measured:
PTP1B = molecular target: T1, PTP1B (Homo sapiens, UniProt P18031); assay: biochemical; assay type: biochemical
T1 sequence (P18031 1-435): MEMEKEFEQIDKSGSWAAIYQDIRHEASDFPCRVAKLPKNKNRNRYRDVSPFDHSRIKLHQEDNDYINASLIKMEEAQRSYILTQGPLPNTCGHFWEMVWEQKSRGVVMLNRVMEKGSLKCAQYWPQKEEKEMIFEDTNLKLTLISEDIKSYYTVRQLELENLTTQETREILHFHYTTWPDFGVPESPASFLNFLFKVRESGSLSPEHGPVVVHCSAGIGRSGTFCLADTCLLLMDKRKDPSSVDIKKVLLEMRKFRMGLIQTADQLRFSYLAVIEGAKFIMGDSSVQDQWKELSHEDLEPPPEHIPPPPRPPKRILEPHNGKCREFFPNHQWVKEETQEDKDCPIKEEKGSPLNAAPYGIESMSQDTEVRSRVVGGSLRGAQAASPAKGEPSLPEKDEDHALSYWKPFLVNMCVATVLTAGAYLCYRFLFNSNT

Cdc14A = molecular target: T2, Cdc14A (Homo sapiens, UniProt Q9UNH5); assay: PTP selectivity panel: Cdc14A; assay type: biochemical
T2 sequence (Q9UNH5 1-594): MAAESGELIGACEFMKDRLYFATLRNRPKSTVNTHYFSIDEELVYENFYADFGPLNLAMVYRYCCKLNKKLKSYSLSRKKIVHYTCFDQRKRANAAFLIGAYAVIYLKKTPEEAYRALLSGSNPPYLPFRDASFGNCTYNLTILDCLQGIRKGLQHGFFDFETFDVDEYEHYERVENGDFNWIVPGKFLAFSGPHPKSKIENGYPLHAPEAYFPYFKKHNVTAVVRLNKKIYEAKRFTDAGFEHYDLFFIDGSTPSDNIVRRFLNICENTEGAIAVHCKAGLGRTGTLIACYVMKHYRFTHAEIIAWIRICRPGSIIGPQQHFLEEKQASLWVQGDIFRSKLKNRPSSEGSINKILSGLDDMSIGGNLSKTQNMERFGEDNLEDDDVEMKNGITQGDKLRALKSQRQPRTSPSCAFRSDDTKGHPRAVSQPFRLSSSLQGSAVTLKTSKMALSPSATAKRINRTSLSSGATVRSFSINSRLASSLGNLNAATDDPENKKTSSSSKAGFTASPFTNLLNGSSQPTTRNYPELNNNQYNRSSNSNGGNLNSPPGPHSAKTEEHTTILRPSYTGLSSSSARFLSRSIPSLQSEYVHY

[1] = tested on: IL-6 secretion in cells expressing mPTPB; assay: IL-6 secretion in cells expressing mPTPB; assay type: cell-based; conditions: especially at 120 and 240 nM
Description: As explained above, ERK phosphorylation is important in the cellular secretion pathway of IL-6. However, mPTPB blocks or inhibits the phosphorylation of ERK which reduces and potentially prevents IL-6 secretion altogether.

CD45 = molecular target: T3, CD45 (Homo sapiens, UniProt P08575); assay: biochemical; assay type: biochemical
T3 sequence (P08575 26-1306): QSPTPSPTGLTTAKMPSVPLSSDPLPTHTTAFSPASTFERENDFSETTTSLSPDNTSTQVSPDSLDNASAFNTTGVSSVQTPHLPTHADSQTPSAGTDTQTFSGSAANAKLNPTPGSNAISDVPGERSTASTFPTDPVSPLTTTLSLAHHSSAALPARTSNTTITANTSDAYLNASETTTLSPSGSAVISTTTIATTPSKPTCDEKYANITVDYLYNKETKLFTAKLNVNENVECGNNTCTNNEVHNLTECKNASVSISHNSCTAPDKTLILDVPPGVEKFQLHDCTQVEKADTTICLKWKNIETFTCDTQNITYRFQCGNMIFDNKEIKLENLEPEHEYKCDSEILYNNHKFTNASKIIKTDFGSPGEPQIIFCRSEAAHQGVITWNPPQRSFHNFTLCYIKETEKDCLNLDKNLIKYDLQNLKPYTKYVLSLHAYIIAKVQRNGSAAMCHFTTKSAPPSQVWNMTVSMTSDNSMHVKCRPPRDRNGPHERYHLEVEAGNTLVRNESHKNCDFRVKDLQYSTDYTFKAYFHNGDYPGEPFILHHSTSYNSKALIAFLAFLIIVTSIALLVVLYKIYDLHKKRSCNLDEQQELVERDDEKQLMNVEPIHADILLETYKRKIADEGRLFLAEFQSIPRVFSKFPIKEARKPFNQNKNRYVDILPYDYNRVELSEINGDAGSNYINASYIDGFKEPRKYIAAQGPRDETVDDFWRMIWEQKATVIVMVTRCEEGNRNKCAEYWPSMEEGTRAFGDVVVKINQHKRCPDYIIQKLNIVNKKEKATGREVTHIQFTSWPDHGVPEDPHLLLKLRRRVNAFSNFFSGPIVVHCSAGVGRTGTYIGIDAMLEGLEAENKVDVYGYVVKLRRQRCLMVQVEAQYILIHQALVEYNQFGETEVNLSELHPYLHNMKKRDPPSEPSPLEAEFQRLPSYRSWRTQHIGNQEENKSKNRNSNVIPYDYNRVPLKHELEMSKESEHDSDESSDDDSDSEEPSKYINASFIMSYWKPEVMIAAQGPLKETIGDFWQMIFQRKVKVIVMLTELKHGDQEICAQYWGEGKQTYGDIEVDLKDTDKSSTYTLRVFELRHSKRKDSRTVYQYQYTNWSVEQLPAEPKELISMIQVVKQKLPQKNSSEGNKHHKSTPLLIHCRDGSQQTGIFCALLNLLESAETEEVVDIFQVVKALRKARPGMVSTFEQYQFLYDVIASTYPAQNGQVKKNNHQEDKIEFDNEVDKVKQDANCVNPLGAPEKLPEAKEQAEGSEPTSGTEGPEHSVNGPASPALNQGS

FAP1 = FAP1 (Homo sapiens, UniProt Q12923); assay: biochemical; assay type: biochemical
Chain of FAP1 (Q12923 whole entry, species assumed): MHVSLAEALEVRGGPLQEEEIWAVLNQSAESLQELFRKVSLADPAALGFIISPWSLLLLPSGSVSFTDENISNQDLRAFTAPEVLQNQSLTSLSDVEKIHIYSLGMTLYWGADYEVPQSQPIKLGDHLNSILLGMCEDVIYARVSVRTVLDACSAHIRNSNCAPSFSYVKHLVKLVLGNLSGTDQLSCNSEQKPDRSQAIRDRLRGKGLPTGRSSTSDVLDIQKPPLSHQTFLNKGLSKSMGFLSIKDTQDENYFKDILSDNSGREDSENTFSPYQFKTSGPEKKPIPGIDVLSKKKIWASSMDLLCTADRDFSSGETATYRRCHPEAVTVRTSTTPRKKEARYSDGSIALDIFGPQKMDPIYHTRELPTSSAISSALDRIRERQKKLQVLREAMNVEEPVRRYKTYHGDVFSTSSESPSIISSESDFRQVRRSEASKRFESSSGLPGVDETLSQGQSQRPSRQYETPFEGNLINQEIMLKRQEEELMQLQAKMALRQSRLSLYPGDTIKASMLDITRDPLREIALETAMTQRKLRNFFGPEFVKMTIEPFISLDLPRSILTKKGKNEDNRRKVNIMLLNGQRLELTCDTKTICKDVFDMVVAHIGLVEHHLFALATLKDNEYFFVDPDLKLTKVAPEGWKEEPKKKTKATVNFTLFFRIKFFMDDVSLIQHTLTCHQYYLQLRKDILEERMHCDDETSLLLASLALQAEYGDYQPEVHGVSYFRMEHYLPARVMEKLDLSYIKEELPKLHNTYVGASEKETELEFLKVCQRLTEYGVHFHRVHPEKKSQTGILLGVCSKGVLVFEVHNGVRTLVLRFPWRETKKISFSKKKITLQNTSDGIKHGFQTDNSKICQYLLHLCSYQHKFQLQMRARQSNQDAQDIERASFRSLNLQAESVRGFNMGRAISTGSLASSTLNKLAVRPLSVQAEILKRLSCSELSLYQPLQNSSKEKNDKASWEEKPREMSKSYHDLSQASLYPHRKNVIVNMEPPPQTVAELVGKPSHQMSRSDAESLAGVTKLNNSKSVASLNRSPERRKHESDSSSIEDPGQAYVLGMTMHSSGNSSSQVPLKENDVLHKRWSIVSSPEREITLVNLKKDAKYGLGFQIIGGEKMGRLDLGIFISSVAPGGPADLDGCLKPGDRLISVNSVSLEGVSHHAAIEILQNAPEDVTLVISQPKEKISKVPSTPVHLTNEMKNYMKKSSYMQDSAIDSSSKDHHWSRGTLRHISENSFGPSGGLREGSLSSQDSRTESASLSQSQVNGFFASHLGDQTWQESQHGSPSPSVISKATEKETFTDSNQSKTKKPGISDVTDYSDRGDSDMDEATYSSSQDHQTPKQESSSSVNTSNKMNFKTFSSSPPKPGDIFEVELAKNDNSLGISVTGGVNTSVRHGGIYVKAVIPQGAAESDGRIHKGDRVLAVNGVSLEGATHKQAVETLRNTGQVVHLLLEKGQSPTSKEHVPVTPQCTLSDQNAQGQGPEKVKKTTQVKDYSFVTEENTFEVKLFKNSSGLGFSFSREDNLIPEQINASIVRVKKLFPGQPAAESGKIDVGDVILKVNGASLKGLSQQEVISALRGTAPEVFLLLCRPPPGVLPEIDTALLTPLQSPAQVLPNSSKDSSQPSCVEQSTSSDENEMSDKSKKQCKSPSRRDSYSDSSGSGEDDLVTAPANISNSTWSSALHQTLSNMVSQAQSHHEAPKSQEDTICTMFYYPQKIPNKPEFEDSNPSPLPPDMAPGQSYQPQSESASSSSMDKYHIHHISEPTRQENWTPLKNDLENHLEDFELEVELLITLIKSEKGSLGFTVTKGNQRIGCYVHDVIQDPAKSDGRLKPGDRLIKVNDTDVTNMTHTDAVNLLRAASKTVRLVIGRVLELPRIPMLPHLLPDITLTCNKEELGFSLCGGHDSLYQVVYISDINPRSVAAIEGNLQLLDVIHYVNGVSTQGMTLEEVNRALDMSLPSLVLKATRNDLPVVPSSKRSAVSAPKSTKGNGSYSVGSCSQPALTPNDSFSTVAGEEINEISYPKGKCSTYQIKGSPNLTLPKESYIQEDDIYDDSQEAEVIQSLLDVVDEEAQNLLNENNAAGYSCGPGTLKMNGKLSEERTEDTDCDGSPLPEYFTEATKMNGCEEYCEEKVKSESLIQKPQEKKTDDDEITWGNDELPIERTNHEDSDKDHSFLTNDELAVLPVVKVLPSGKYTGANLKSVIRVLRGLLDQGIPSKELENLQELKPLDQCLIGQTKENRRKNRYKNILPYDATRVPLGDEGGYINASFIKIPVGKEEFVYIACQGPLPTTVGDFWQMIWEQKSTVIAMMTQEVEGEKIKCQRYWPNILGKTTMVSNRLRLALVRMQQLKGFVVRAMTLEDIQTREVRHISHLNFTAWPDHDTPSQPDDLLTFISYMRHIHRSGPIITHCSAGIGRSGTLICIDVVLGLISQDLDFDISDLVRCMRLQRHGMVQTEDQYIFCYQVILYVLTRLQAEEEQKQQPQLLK

VHX = molecular target: T4, VHX (Homo sapiens, UniProt Q9NRW4); assay: biochemical; assay type: biochemical
T4 sequence (Q9NRW4 1-184): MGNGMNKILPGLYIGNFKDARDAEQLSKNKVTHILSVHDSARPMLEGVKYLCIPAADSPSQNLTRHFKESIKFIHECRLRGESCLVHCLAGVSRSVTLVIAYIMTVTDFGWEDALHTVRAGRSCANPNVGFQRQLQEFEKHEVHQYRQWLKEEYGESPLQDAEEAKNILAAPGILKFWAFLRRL

SHP2-D2C = SHP2-D2C (Homo sapiens, UniProt Q06124); assay: biochemical; assay type: biochemical
Chain of SHP2-D2C (Q06124 224-528 limits assumed): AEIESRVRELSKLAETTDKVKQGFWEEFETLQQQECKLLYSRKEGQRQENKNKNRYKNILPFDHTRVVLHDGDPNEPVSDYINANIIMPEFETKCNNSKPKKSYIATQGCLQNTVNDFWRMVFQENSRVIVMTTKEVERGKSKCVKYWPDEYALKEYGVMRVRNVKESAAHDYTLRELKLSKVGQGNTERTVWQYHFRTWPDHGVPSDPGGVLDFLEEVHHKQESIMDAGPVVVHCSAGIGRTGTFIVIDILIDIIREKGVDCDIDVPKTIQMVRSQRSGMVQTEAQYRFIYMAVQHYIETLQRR

Structure (SMILES) | IC50 (PTP1B) [µM] | IC50 (Cdc14A) [µM] | IL-6 secretion [1] | IC50 (CD45) [µM] | IC50 (FAP1) [µM] | IC50 (VHX) [µM] | IC50 (SHP2-D2C) [µM]
O=C(O)c1cc2c(C#Cc3cccc(C(F)(F)F)c3)c(-c3ccccc3)oc2cc1O [32 (L01Z08)] | 6.7 ± 0.7 | 6 ± 1 | returned to normal or near normal IL-6 secretion levels | 4.2 ± 0.5 | 1.3 ± 0.2 | 1.4 ± 0.2 | 
Cn1c(-c2ccccc2C(F)(F)F)c(I)c2cc(C(=O)O)c(O)cc21 [Compound 207a, 6-hydroxy-3-iodo-1-methyl-2-(2-(trifluoromethyl)phenyl)-1H-indole-5-carboxylic acid] | 700 ± 100 |  |  | 227 ± 4 | 84 ± 1 | 56 ± 1 | 87 ± 4
